{"source": "patent US20220220481A1", "about": "“LIPID OLIGONUCLEOTIDE ANTISENSE AGAINST ANTIBIOTIC RESISTANCE” (priority 2019, published 2022)", "key": {"[1]": {"tested_on": "E. coli K12 (CFX sensitive strain)", "assay": "Ceftriaxone MIC with or without ASOs/LASOs, liquid micro-dilution, sensitive strain", "format": "cell-based, Escherichia coli", "conditions": "K12, 24 h, SD 0, n=3", "method": "(§1) Determination of minimum inhibitor concentration (MICs) of free CFX with or without ASOs/LASOs was performed on different strains of E. coli, i.e. the CFX sensitive strain K12, and the two resistant strains TcK12 and Ec3536.\n(§2) MICs of free CFX with ASOs/LASOs were determined in accordance with the standard method of liquid micro-dilution.\nEach bacterial strain that had been frozen at −80° C. was isolated on Mueller-Hinton (MH) agar during 16 h at 37° C. A bacterial suspension in solution of 0.85% NaCl was prepared in order to obtain a turbidity equivalent to standard 0.5 of McFarland range and then diluted 1/100 in MH that correspond to a bacterial inoculum of ca. 10^6 CFU/mL. The bacterial suspension was afterwards mixed with ASOs, LASOs at 2-fold desired concentration in MH. Then 50 μL of bacterial suspension mixed with 50 μl MH, containing oligonucleotides or CFX, was dispensed into the microplate wells immediately. The final volume per well was 100 μL. The concentration of oligonucleotides in well was fixed at 5 μM except for dose-effect tests. The concentration range of LASOs from 0.05 μM to 50 μM was tested. The range of CFX concentration was adjusted to surround the MIC of each bacterial strain. […]\n(§3) Preliminary data allowed to optimize the analysis of microplates using turbidimeter (Apollo LB 911 (Berthold)) at the wavelength of 620 nm, read in triplicate at 0 h, and 24 h. […]"}, "[2]": {"tested_on": "E. coli TcK12 (resistant, blaCTX-M-15 plasmid)", "assay": "Ceftriaxone MIC with or without ASOs/LASOs, liquid micro-dilution, resistant laboratory strain", "format": "cell-based, Escherichia coli", "conditions": "TcK12, 24 h", "text": "E. coli strains used included the clinical strain Ec3536 collected from a urine sample of the community patient and provided from the MFP Laboratory collection (Arpin et al. (2009) J. Antimicrob. Chemother. 63:1205-1214). Its conjugative plasmid containing the blaCTX-M-15 gene was transferred by conjugation experiment in a laboratory recipient cell of E. coli K12. Consequently, the transconjugant E. coli TcK12 was resistant to ceftriaxone (CFX) (Arpin et al. (2009) J. Antimicrob. Chemother. 63:1205-1214).\nas §1, §2\nEach bacterial strain that had been frozen at −80° C. was isolated on Mueller-Hinton (MH) agar during 16 h at 37° C. A bacterial suspension in solution of 0.85% NaCl was prepared in order to obtain a turbidity equivalent to standard 0.5 of McFarland range and then diluted 1/100 in MH that correspond to a bacterial inoculum of ca. 10^6 CFU/mL. […]\nas §3"}}}
{"smiles": "CO/N=C(\\C(=O)N[C@@H]1C(=O)N2C(C(=O)O)=C(CSc3nc(=O)c(=O)[nH]n3C)CS[C@H]12)c1csc(N)n1", "note": "[CFX, ceftriaxone]", "values": [{"measurement": "CFX MIC in absence of antisense sequences", "setting": "[1]", "result": 0.06, "unit": "µg/mL"}, {"measurement": "CFX MIC without oligonucleotide (means of MICs)", "setting": "[2]", "result": 1365, "unit": "µg/mL"}]}
